Measured values reported in ChEMBL document CHEMBL1136862, “Development of thioquinazolinones, allosteric Chk1 kinase inhibitors” (Bioorg Med Chem Lett, 2009).

Key:
[1] = molecular target: T1, Serine/threonine-protein kinase Chk1 (Homo sapiens, UniProt O14757); assay: Inhibition of C-terminal 6-His tagged human Chk1 by HTRF assay in presence of 0.1 mM ATP
T1 sequence (O14757 whole entry): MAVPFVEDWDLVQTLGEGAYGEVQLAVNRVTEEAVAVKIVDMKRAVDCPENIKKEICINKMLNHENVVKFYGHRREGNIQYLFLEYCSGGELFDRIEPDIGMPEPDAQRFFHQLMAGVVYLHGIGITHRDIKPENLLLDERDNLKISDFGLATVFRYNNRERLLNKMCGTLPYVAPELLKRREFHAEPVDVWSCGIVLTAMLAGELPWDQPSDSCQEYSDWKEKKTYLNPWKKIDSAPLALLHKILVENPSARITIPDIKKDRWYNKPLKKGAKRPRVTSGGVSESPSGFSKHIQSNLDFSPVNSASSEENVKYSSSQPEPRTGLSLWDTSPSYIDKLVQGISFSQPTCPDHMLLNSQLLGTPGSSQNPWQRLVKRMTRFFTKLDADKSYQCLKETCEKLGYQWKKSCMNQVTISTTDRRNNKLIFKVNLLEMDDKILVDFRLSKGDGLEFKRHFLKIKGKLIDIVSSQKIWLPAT

[2] = molecular target: T2, Serine/threonine-protein kinase Chk1 (Homo sapiens) (UniProt O14757); assay: Inhibition of C-terminal 6-His tagged human Chk1 at 100 uM by HTRF assay in presence of 0.1 mM ATP
T2 sequence (whole entry): T1 sequence (O14757 whole entry)

[3] = molecular target: T1, Serine/threonine-protein kinase Chk1; assay: Inhibition of C-terminal 6-His tagged human Chk1 by HTRF assay in presence of 2.0 mM ATP

Row | Structure (SMILES) | IC50 [1] [µM] | inhibition [2] [%] | other results
1 | CCCCC(Sc1nc2c(C)cccc2c(=O)n1-c1cccc(Cl)c1)C(=O)N1CCC(C(N)=O)CC1 (stereo not drawn) | 17 |  | 
2 | CCCCC(Sc1nc2ccccc2c(=O)n1C(C)C)C(=O)N1CCC(C(N)=O)CC1 (stereo not drawn) |  | 20 | 
3 | CCCCC(Sc1nc2ccccc2c(=O)n1-c1ccc(Cl)cc1)C(=O)N1CCC(C(N)=O)CC1 (stereo not drawn) | > 100 |  | 
4 | CCCCC(Sc1nc2cc(C)ccc2c(=O)n1-c1cccc(Cl)c1)C(=O)N1CCC(C(N)=O)CC1 (stereo not drawn) | 28 |  | 
5 | CCCCC(Sc1nc2ccccc2c(=O)n1-c1ccccc1)C(=O)NC(C)(C)C (stereo not drawn) | > 100 |  | 
6 | CCCCC(Sc1nc2ccccc2c(=O)n1-c1ccccc1)C(=O)N1CCN(c2ccccc2)CC1 (stereo not drawn) | 3.3 |  | 
7 | CCCCC(Sc1nc2cccc(C)c2c(=O)n1-c1cccc(Cl)c1)C(=O)N1CCC(C(N)=O)CC1 (stereo not drawn) | > 100 |  | 
8 | CCCCC(Sc1nc2ccccc2c(=O)n1-c1ccnc(Cl)c1)C(=O)N1CCC(C(N)=O)CC1 (stereo not drawn) |  | 20 | 
9 | CCCCC(Sc1nc2c(OC)cccc2c(=O)n1-c1cccc(Cl)c1)C(=O)N1CCC(C(N)=O)CC1 (stereo not drawn) | 21 |  | 
10 | CCCCC(Sc1nc2ccccc2c(=O)n1-c1ccccc1Cl)C(=O)N1CCC(C(N)=O)CC1 (stereo not drawn) | 41 |  | 
11 | CCCCC(Sc1nc2ccccc2c(=O)n1Cc1cccnc1)C(=O)N1CCC(C(N)=O)CC1 (stereo not drawn) |  | 26 | 
12 | CC(C)C(Sc1nc2ccccc2c(=O)n1-c1cccc(Cl)c1)C(=O)N1CCC(C(N)=O)CC1 (stereo not drawn) | > 100 |  | 
13 | CCCCC(Sc1nc2ccccc2c(=O)n1-c1ccccc1)C(=O)N1CCC(c2ccccc2)(c2ccccc2)CC1 (stereo not drawn) | 4.5 |  | 
14 | CCCCC(Sc1nc2ccccc2c(=O)n1-c1ccccc1)C(=O)NC1CCCCC1 (stereo not drawn) | > 100 |  | 
15 | CCCCC(Sc1nc2ccccc2c(=O)n1-c1ccccc1)C(=O)N1CCCC2(CCCNC2)C1 (stereo not drawn) | 3.8 |  | 
16 | CCCCC(Sc1nc2ccccc2c(=O)n1C)C(=O)N1CCC(C(N)=O)CC1 (stereo not drawn) |  | 48 | 
17 | CCCCC(Sc1nc2ccccc2c(=O)n1-c1ccccc1)C(=O)NC1CC2CCC1C2 (stereo not drawn) |  | 3 | 
18 | CCCCC(Sc1nc2ccccc2c(=O)n1-c1cccnc1)C(=O)N1CCC(C(N)=O)CC1 (stereo not drawn) |  | 35 | 
19 | CCCCC(Sc1nc2ccccc2c(=O)n1-c1ccccc1)C(=O)N(CC)CC (stereo not drawn) |  | 62 | 
20 | CCCCC(Sc1nc2ccccc2c(=O)n1-c1ccccc1)C(=O)N1CCC(C(N)=O)CC1 (stereo not drawn) | 17 |  | IC50 [3]: 24 µM
21 | CCCCC(Sc1nc2ccccc2c(=O)n1-c1ccccc1)C(=O)N1CCS(=O)(=O)CC1 (stereo not drawn) | 6 |  | 
22 | CCCCC(Sc1nc2ccccc2c(=O)n1C1CCCCC1)C(=O)N1CCC(C(N)=O)CC1 (stereo not drawn) |  | 17 | 
23 | CCCCC(Sc1nc2c(O)cccc2c(=O)n1-c1cccc(Cl)c1)C(=O)N1CCC(C(N)=O)CC1 (stereo not drawn) | 20 |  | 
24 | NC(=O)C1CCN(C(=O)C(Sc2nc3ccccc3c(=O)n2-c2cccc(Cl)c2)c2ccccc2)CC1 (stereo not drawn) | 21 |  | 
25 | CCCCC(Sc1nc2ccccc2c(=O)n1-c1ccccc1)C(=O)NC12CC3CC(CC(C3)C1)C2 (stereo not drawn) | > 100 |  | 
26 | CC(C)CC(Sc1nc2ccccc2c(=O)n1-c1cccc(Cl)c1)C(=O)N1CCC(C(N)=O)CC1 (stereo not drawn) | 2.8 |  | 
27 | CCCCC(Sc1nc2ccc(C)cc2c(=O)n1-c1cccc(Cl)c1)C(=O)N1CCC(C(N)=O)CC1 (stereo not drawn) |  | 30 | 
